Test [1] deals with human peripheral lymphocytes. The test is classed as cell-based. The conditions noted are these: for Optimum concentr.: concentration of optimum E-rosette stimulation after α-amanitin block; for Relative number of the E-rosettes (%): after inhibition with α-amanitin. The text has this:
The immunological test methods used were the E-rosette test according to Wara, Ammann et al. (N.Y. Acad. Sci. 249 (1975) 308 and N. Engl. J. Med. 292 (1975) 70) and the method of mixed lymphocyte culture, both methods involving additional inhibition of cellular RNS polymerase by alpha-amanitin. The E-rosette test is based on the fact that the percentage of E-rosette forming cells in peripheral human blood is a measure of the content of fully mature T-cells, which form with sheep's red blood cells characteristic aggregates which can be counted under the microscope.
For the performance of the E-rosette test, peripheral human lymphocytes are isolated by a gradient centrifugation. Their RNS polymerase is blocked by alpha-amanitin. […] This value is taken as 100% in a relative numerical scale, and after the alpha-amanitin blockage it is taken to be 0%; see Table XII.

For test [2], the system named is human peripheral lymphocytes. The class given is cell-based. The conditions noted are these: for stimulation (+) / inhibition (-) (%) of the mixed lymphocyte culture: 1 μg fragment per ml; for (%) Stimulation of allogenic mixed culture: 1 microgram thymosin α1 per ml. Here is the method: The test in mixed lymphocyte cultures is based on the fact that T-cells are made to proliferate by stimulation with allogenic antigens. For the performance of the test, the lymphocytes of donor A ("responder") are incubated with those of donor B ("stimulator") for 4 to 5 days. Then ^3 H-thymidin is added and the rate of proliferation is measured on the basis of the increasing radioactivity of the cell culture due to the installation of the radioactive material. Since both populations A and B might be made to proliferate, resulting in an unclear effect, population B is blocked with mitomycin C in all metabolical activities. This test is routinely used before organ transplants to determine the immunological compatibility of donor and receiver tissues.

The mark [3] stands for this setting: after α-amanitin block (=0%), normal level without any addition = 100%, at optimum concentration.
The mark [4] stands for this setting: cell pair AB, culture blocked with 1 μg α-amanitin per ml.
[5] abbreviates: cell pair AB, not blocked with amanitin, culture without addition = 0%.
Where [6] appears, read: cell pair BA, culture blocked with 1 μg α-amanitin per ml.
The mark [7] stands for this setting: cell pair CD, not blocked with amanitin, culture without addition = 0%.
The mark [8] stands for this setting: cell pair DC, not blocked with amanitin, culture without addition = 0%.
Where [9] appears, read: cell pair BA, not blocked with amanitin, culture without addition = 0%.
The mark [10] stands for this setting: cell pair CD, culture blocked with 1 μg α-amanitin per ml.
[11] abbreviates: cell pair DC, culture blocked with 1 μg α-amanitin per ml.

Where two headings read alike, the source gives them in different places. Residues, ends and D or L forms follow the SMILES beside them. No end group written: not given here.

Consider `C[C@H](NC(=O)[C@@H](N)CCC(=O)O)C(=O)N[C@@H](CCC(=O)O)C(=O)N[C@@H](CC(N)=O)C(=O)O` [V] (H-EAEN-OH), for which the “activity in the E-rosette test (in words)” value (from here on “activity”) in test [1] is listed as “activity in the E-rosette test only at a relatively high dosage”. Further, the “E-rosette number (%)” value in test [1] (setting [3]) is 42%. Besides, the “Optimum concentr.” value in test [1] came to 113 µM. In addition, the “action in the mixed lymphocyte culture (in words)” value (shortened to “action”) in test [2] is reported as “very considerable stimulation of T-cell proliferation”. Also, the “stimulation (+) / inhibition (-) (%) of the mixed lymphocyte culture” value (from here on “stimulation (+) / inhibition (-) (%)”) is on record as -47% in test [2] (setting [4]); “+223%” in test [2] (setting [5]); -94% in test [2] (setting [6]); “+45%” in test [2] (setting [7]); “+37%” in test [2] (setting [8]).
Regarding “Synthetic thymosin α1: parent substance, totally synthetic thymosin α1, 28 amino acids, analytically pure (SDAAVDTSSEITTKDLKEKKEVVEEAEN; ends and bridges not checked; UniProt P06454 2-29, looked up) [reference compound]”, the “Relative number of the E-rosettes (%)” value in test [1] (0.25 μg per culture) is listed as 39%; in test [1] (0.50 μg per culture) it was 100%; in test [1] (1.00 μg per culture) it was 64%; in test [1] (2.50 μg per culture) it was 57%; in test [1] (5.00 μg per culture), 33%. The “E-rosette number (%)” value in test [1] (setting [3]) was determined as 100%. Moreover, the “Optimum concentr.” value in test [1] came out at 1.6 µM. Also, the “(%) Stimulation of allogenic mixed culture” value in test [2] (cell pair AB, (a) culture not inhibited, without addition = 0%) was “+20%”; in test [2] (cell pair AB, (b) culture inhibited with 1 microgram amanitin per ml), “+86%”; in test [2] (cell pair AD, (a) culture not inhibited), “+4%”; in test [2] (cell pair AD, (b) culture inhibited with 1 microgram amanitin per ml), “+37%”; in test [2] (cell pair BA, (a) culture not inhibited) it was “+27%”; in test [2] (cell pair BA, (b) culture inhibited with 1 microgram amanitin per ml), “+47%”. Also, the “(%) Stimulation of allogenic mixed culture” value was “+45%” in test [2] (cell pair BD, (a) culture not inhibited); “+51%” in test [2] (cell pair BD, (b) culture inhibited with 1 microgram amanitin per ml); “+44%” in test [2] (cell pair DA, (a) culture not inhibited); “+27%” in test [2] (cell pair DB, (a) culture not inhibited); “+1550%” in test [2] (cell pair DB, (b) culture inhibited with 1 microgram amanitin per ml).
As to TSSEIT [II], in test [1] (setting [3]), the “E-rosette number (%)” value is 29%. Moreover, the “Optimum concentr.” value in test [1] was found to be 80 µM. The “stimulation (+) / inhibition (-) (%)” value in test [2] (setting [4]) is on record as -11%; in test [2] (setting [6]), -80%; in test [2] (setting [9]), -18%; in test [2] (setting [10]), -98%; in test [2] (setting [7]), -53%; in test [2] (setting [11]), “+20%”. Moreover, in test [2] (setting [8]), the “stimulation (+) / inhibition (-) (%)” value was “+30%”.
Regarding Ac-SDAAVDTSSEIT [IX], the “activity” value in test [1] is listed as “more strongly stimulated”. The “E-rosette number (%)” value in test [1] (setting [3]) stood at 40%. The “Optimum concentr.” value in test [1] is 4 µM. In test [2], the “action” value is recorded as “surprisingly pronounced inhibiting action”. Moreover, the “stimulation (+) / inhibition (-) (%)” value is -30% in test [2] (setting [4]); -74% in test [2] (setting [5]); -78% in test [2] (setting [6]); “+63%” in test [2] (setting [10]); -63% in test [2] (setting [7]); “+60%” in test [2] (setting [11]). For the same compound, the “stimulation (+) / inhibition (-) (%)” value in test [2] (setting [8]) is on record as -77%.
In the case of KEVVE [IV], the “activity” value in test [1] is given as “activity in the E-rosette test only at a relatively high dosage”. Further, the “E-rosette number (%)” value in test [1] (setting [3]) turned out to be 45%. The “Optimum concentr.” value in test [1] was 83 µM. Further, the “action” value in test [2] was “very considerable stimulation of T-cell proliferation”. The “stimulation (+) / inhibition (-) (%)” value is -87% in test [2] (setting [4]); -53% in test [2] (setting [5]); -97% in test [2] (setting [6]); “+35%” in test [2] (setting [10]); “+37%” in test [2] (setting [7]); “+100%” in test [2] (setting [11]). Further, the “stimulation (+) / inhibition (-) (%)” value in test [2] (setting [8]) is on record as “+2%”.
On to KDAAVD [Ia], for which, in test [1], the “activity” value was “especially active”. Further, the “E-rosette number (%)” value in test [1] (setting [3]) is listed as 93%. Further, the “Optimum concentr.” value in test [1] is 16 µM. In addition, in test [2], the “action” value was “surprisingly pronounced inhibiting action”. Further, the “stimulation (+) / inhibition (-) (%)” value in test [2] (setting [4]) is given as -10%; in test [2] (setting [5]) it was -8%; in test [2] (setting [9]), -15%; in test [2] (setting [10]), -53%; in test [2] (setting [7]), -73%; in test [2] (setting [11]), -7%. Moreover, the “stimulation (+) / inhibition (-) (%)” value in test [2] (setting [8]) is listed as -31%.
As to KEVVEEAEN [VI], in test [1] (setting [3]), the “E-rosette number (%)” value is on record as 16%. In addition, in test [1], the “Optimum concentr.” value was 10 µM. The “stimulation (+) / inhibition (-) (%)” value was “+279%” in test [2] (setting [4]); “+153%” in test [2] (setting [5]); -96% in test [2] (setting [6]); “+83%” in test [2] (setting [10]); “+57%” in test [2] (setting [7]); “+160%” in test [2] (setting [11]).
As to TKDLKEKKEVVEEAEN [VII], in test [1], the “E-rosette number (%)” value was determined as 41%, the “activity” value is listed as “more strongly stimulated” and the “Optimum concentr.” value stood at 6 µM.
